Experimental data as given in the supplement of paper PMC10307832.

Assays:
Assay in all cases: relative viability (nuclei count vs DMSO), 5 days (fraction); higher = more cells survive
[1] = compound: C(C(=O)C(=O)O)Br [Bromopyruvate] + CC(=O)c1c(C)c2cnc(Nc3ccc(N4CCNCC4)cn3)nc2n(C2CCCC2)c1=O [Palbociclib] (partner 0.5 µM)
Method in brief: (§1)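 Relative viability was taken as the ratio of nuclei in treated wells to nuclei in vehicle wells. Lung cancer cell lines in 1536-well plates received compounds by pin tool one day after seeding, either one drug alone or a fixed anchor-drug dose plus five library-drug doses (not always all listed) in √10 steps. Nuclei were counted on 4× images after 5 days of treatment, and values are medians of duplicate plates.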

[2] = compound: C(C(=O)C(=O)O)Br [Bromopyruvate] + C[C@]1(O)C[C@@H](c2nc(-c3ccc4ccc(-c5ccccc5)nc4c3)c3c(N)nccn32)C1 [Linsitinib] (partner 1 µM)
Method in brief: as §1

[3] = compound: C(C(=O)C(=O)O)Br [Bromopyruvate] + CC1(C)CCC(c2ccc(Cl)cc2)=C(CN2CCN(c3ccc(C(=O)NS(=O)(=O)c4ccc(N[C@H](CCN5CCOCC5)CSc5ccccc5)c(S(=O)(=O)C(F)(F)F)c4)cc3)CC2)C1 [Navitoclax] (partner 0.5 µM)
Method in brief: as §1

Bromopyruvate + Olaparib = compound: C(C(=O)C(=O)O)Br [Bromopyruvate] + O=C(c1cc(Cc2n[nH]c(=O)c3ccccc23)ccc1F)N1CCN(C(=O)C2CC2)CC1 [Olaparib] (partner 8 µM)
Method in brief: as §1

Cell Line: UMC-11
- relative viability ([1]; first compound 1 µM): 0.343
- relative viability ([1]; first compound 3.162 µM): 0.353
- relative viability ([1]; first compound 10 µM): 0.324
- relative viability ([1]; first compound 31.62 µM): 0.367
- relative viability ([1]; first compound 100 µM): 0.356
- relative viability ([2]; first compound 1 µM): 1.03
- relative viability ([2]; first compound 3.162 µM): 1.08
- relative viability ([2]; first compound 10 µM): 0.884
- relative viability ([2]; first compound 31.62 µM): 0.987
- relative viability ([2]; first compound 100 µM): 1.03
- relative viability ([3]; first compound 1 µM): 0.289
- relative viability ([3]; first compound 3.162 µM): 0.291
- relative viability ([3]; first compound 10 µM): 0.304
- relative viability ([3]; first compound 31.62 µM): 0.297
- relative viability ([3]; first compound 100 µM): 0.288
- relative viability (Bromopyruvate + Olaparib; first compound 1 µM): 0.366
- relative viability (Bromopyruvate + Olaparib; first compound 3.162 µM): 0.356
- relative viability (Bromopyruvate + Olaparib; first compound 10 µM): 0.374
- relative viability (Bromopyruvate + Olaparib; first compound 31.62 µM): 0.35
- relative viability (Bromopyruvate + Olaparib; first compound 100 µM): 0.393
